Test results reported in paper PMC12567098, “Multi-Kinase Inhibition by New Quinazoline–Isatin Hybrids: Design, Synthesis, Biological Evaluation and Mechanistic Studies” (Pharmaceuticals, 2025).

What was measured:
Caspase-3 = test: RT-qPCR gene expression analysis, caspase-3; format: cell-based; conditions: HepG2, RT-qPCR, fold vs untreated = 1
Source text: (§1) One significant anticancer mechanism is apoptosis. Drugs that induce apoptosis cause simultaneous or subsequent activation of death receptor systems, mitochondrial dysfunction, and caspase proteolytic processing. Thus, the cell death pathway may occur in several locations. In this study, the alteration in Bax, Bcl-2, and caspase-3 and 9 gene expression following the stimulation of apoptosis by 6c in HepG2 cells using the RT-qPCR method and staurosporine as a positive control is reported in Table 4.
(§2) 3.4.5. Gene Expression Analysis
(§3) After the RNA extraction,
(§4) reverse transcriptase enzyme.
(§5) The amplification reactions
(§6) The data were analyzed using a […]

Bax = test: RT-qPCR gene expression analysis, Bax; format: cell-based; conditions: HepG2, RT-qPCR, fold vs untreated = 1
Source text: as §1, §2, §3, §4, §5, §6

Bcl-2 = test: RT-qPCR gene expression analysis, Bcl-2; format: cell-based; conditions: HepG2, RT-qPCR, fold vs untreated = 1
Source text: as §1, §2, §3, §4, §5, §6

Caspase-9 = test: RT-qPCR gene expression analysis, caspase-9; format: cell-based; conditions: HepG2, RT-qPCR, fold vs untreated = 1
Source text: as §1, §2, §3, §4, §5, §6

HepG2 = test: MTT cytotoxicity assay, HepG2; format: cell-based; conditions: Homo sapiens, 48 h
Description: (§7) The synthesized isatin–quinazoline compounds (6a–d) were assessed for their cytotoxicity against four cancer cell lines, namely, hepatocellular carcinoma HepG2, breast carcinoma MCF-7, breast adenocarcinoma MDA-MB-231, and cervical carcinoma HeLa, using an MTT colorimetric assay. Doxorubicin and sunitinib were used as positive controls for comparison. The antiproliferative activities are expressed as the median growth inhibitory concentration (IC50) in micromolar range and are described in Table 1.
(§8) Cytotoxicity of the synthesized compounds 6a–d was assessed by performing a colorimetric MTT (3-(4,5-dimethylthiazol-2-yl)-2,5-diphenyltetrazolium bromide) assay. The MTT assay is widely used to measure cell proliferation, cell viability, and cytotoxicity. It is based on reducing MTT dye into formazan crystals by living cells, determining mitochondrial activity.
(§9) 3.4. Biological Screening
(§10) Four cancer celllines; Hepatocellular carcinoma (HepG2), Breast adenocarcinoma (MCF-7), Breast adenocarcinoma (MDA-MB-231), and Cervical carcinoma (HeLa) and normal fibroblast cell line (WI38) used in this study were obtained from American Type Culture Collection (ATCC, USA) via Holding company for biological products and vaccines (VACSERA), Cairo, Egypt. Antibiotic solutions and sterilesolutions were purchased from Sigma-Aldrich.
(§11) 3.4.2. Cytotoxicity Assay
(§12) Cytotoxicity of the synthesized compounds 6a-d was done by performing a colorimetric MTT ( 3-(4,5-dimethylthiazol-2-yl)-2,5-diphenyltetrazolium bromide) assay.[41–43] MTT assay is widely used to measure cell proliferation, cell viability, and cytotoxicity. It is based on reducing MTT dye into formazan crystals by living cells, determining mitochondrial activity.[44] For the assay, cells were seeded in Dulbecco’s modified minimum essential medium (DMEM) at a density of 1.0× 10^4 cells/well in 96-well plates, supplemented with 10% FBS and 5% CO2 at 37 °C for 24 h. To each well, a test compound was added at different concentrations .Each concentration was examined three times. Then the cells were treated with the compounds at 37 °C under 5 % CO2 for 48 h. Following this, MTT dye was added to each well at a final concentration of 0.5 mg/ml. Cells were treated with this tetrazolium dye for 4 h. Next, purple crystals of formazan were noticed in each well, formed as a metabolic product of MTT. These crystals were dissolved by adding 100 µl dimethyl sulfoxide (DMSO), and the absorbance in each well was recorded at 570 nm in a microplate reader (EXL 800, USA). Absorbance at 570nm directly correlates with cell viability. IC50 (μM) values were determined using Graph Pad Prism software version 5 (Graph Pad Software Inc, CA). The cells were also treated with Doxorubicin; a standard anticancer drug used as positive control.

MDA-MB-231 = test: MTT cytotoxicity assay, MDA-MB-231; format: cell-based; conditions: Homo sapiens, 48 h
Description: as §7, §8, §9, §10, §11, §12

WI38 = test: MTT cytotoxicity assay, normal fibroblast WI38; format: cell-based; conditions: Homo sapiens, WI-38, 48 h, normal fibroblast cell line WI38
Source text: (§13) Doxorubicin and sunitinib were used as positive controls for comparison.
(§14) The MTT assay is widely used to measure cell proliferation, cell viability, and cytotoxicity. It is based on reducing MTT dye into formazan crystals by living cells, determining mitochondrial activity.
as §9
(§15) Four cancer celllines; Hepatocellular carcinoma (HepG2), Breast adenocarcinoma (MCF-7), Breast adenocarcinoma […]
(§16) from American Type Culture Collection (ATCC, USA) via Holding company for biological products and vaccines (VACSERA), Cairo, Egypt. Antibiotic solutions and sterilesolutions were purchased from Sigma-Aldrich.
(§17) 3.4.2. Cytotoxicity Assay […]
(§18) dimethylthiazol-2-yl)-2,5-diphenyltetrazolium bromide) assay.[41–43] MTT assay is widely used to measure cell proliferation, cell viability, and cytotoxicity. It is based on reducing MTT dye into formazan crystals by living cells, determining mitochondrial activity.[44] For the assay, cells were seeded in Dulbecco’s modified minimum essential medium (DMEM) at a density of 1.0× 10^4 cells/well in 96-well plates, supplemented with 10% FBS and 5% CO2 at 37 °C for 24 h. To each well, a test compound was added at different concentrations .Each concentration was examined three times. Then the cells were treated with the compounds at 37 °C under 5 % CO2 for 48 h. Following this, MTT dye was added to each well at a final concentration of 0.5 mg/ml. Cells were treated with this tetrazolium dye for 4 h. Next, […]
(§19) dissolved by adding 100 µl dimethyl sulfoxide (DMSO), and the absorbance in each well was recorded at 570 nm in a […]
(§20) Absorbance at 570nm directly correlates with cell viability. IC50 (μM) values were determined using Graph Pad Prism software version 5 (Graph Pad Software Inc, CA). The cells were also treated with Doxorubicin; a standard anticancer drug used as positive control.

MCF-7 = test: MTT cytotoxicity assay, MCF-7; format: cell-based; conditions: Homo sapiens, MCF7, 48 h
Source text: as §13, §14, §9, §15, §16, §17, §18, §19, §20

HeLa = test: MTT cytotoxicity assay, HeLa; format: cell-based; conditions: Homo sapiens, 48 h
Source text: as §13, §14, §9, §15, §16, §17, §18, §19, §20

EGFR = EGFR (Homo sapiens, UniProt P00533); test: In vitro EGFR kinase inhibitory assay (BPS kit, Kinase-Glo)
Chain of EGFR (P00533 25-1210): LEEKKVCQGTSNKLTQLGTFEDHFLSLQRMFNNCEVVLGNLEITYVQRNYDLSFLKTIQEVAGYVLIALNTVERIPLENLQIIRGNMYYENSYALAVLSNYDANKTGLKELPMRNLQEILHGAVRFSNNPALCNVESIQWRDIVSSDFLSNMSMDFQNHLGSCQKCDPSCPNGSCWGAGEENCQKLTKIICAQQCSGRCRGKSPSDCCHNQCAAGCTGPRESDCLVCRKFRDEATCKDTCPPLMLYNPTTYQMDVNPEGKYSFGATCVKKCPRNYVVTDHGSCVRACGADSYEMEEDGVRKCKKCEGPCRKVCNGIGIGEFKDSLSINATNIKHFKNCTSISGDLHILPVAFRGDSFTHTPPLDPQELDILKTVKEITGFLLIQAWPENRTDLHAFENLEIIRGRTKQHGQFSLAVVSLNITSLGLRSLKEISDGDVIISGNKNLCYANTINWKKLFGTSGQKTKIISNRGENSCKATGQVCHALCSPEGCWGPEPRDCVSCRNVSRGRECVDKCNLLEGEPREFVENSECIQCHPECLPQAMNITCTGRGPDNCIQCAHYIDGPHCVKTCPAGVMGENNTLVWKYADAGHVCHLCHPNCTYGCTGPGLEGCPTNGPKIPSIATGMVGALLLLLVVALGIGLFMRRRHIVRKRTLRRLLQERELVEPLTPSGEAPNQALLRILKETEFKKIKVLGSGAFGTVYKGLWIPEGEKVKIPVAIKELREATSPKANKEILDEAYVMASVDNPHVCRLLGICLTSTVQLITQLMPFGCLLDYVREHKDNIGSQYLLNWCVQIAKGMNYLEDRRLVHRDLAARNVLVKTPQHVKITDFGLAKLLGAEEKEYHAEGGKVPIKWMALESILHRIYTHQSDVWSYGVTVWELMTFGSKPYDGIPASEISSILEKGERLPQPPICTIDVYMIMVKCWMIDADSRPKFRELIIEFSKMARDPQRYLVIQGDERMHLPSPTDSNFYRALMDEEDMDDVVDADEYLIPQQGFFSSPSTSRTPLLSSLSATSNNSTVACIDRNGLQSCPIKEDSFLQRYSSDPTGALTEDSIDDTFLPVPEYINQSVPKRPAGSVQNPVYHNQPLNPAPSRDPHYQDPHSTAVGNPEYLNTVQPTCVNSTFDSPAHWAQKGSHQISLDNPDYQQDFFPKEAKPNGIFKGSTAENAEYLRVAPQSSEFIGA
Description: (§21) In vitro CDK2, EGFR, VEGFR -2, and HER2 Inhibitory Assays
(§22) using CDK2, EGFR, VEGFR -2, and HER2 Kinase Assay Kit (BPS Biosciences, San Diego, CA).[50] At first, CDK2, EGFR,
(§23) initi-ate the catalytic function of the enzymes. Detection reagent (Kinase-Glo® Max reagent) was the added to stop
(§24) the reaction, followed by incubation at room temperature for 15 min. Then the IC50 values were calculated by
(§25) measuring luminescence signal at 450 nm using a plate reader (Tecan Spark® 10M, Männedorf, Switzerland). All
(§26) assays were carried out based on protocol from manufacture. All samples and controls were tested in duplicate.

HepG2 cells [1] = test: Annexin V-FITC/PI dual-staining apoptosis assay; format: cell-based; conditions: HepG2, 2.6 μM (IC50), 24 h
Description: Apoptosis can be detected by measuring translocated phosphatidylserine (PS) from the interior to the surface of the cell membrane. Therefore, an annexin V-FITC/PI (fluorescein–isothiocyanate/propidium iodide) dual staining flow cytometric assay was carried out for compound 6c to investigate the mechanism of cell death induced by the assessed compound.
The apoptosis assay was performed with an annexin V-FITC/PI double staining apoptosis detection kit (K101, BioVision Inc., Mountain View, CA, USA) using a flow cytometer. Experimental procedures are described in detail in theSupplementary Information. […]
3.4.4. Annexin V-FITC Dual-Staining Apoptosis Assay
Apoptosis assay was performed with an Annexin V-FITC / PI double staining apoptosis detection kit (K101, BioVision Inc, Mountain View, CA, USA) using a flow cytometer.[47,48] […]
concentration (2.6 μM) for 24 h. After treatment, the cells were collected, washed two times with PBS, and resuspended in 500 µL binding buffer. Next, annexin V-FITC (5 µL ) and propidium iodide (PI) 5 µL were intruduced to the suspension and the cells were left in the dark for 15 min at room temperature. Samples were then recorded by Epics XL-MCL™ flow cytometer (Beckman- Coulter, USA) and Flowing software (Turku Centre for Biotechnology, University of Turku, Turku, Finland).

HepG2 cells [2] = test: Propidium iodide flow cytometry cell cycle analysis; format: cell-based; conditions: HepG2, 2.6 μM, 24 h
Description: Its impacts on cell cycle progression and induction of apoptosis were investigated. The effect of compound 6c on the regulation of the cell cycle progression was studied using a Propidium Iodide Flow Cytometry Kit assay. Alterations in the cell cycle were recorded after the treatment of HepG2 cells with 2.6 μM of compounds 6c, chosen for its excellent antiproliferative activities within 24 h.
Cell cycle arrest and distribution were evaluated using a Propidium Iodide Flow Cytometry Kit (ab139418, Abcam, Cambridge, MA, USA) followed by flow cytometry analysis.
3.4.3. Flow cytometry cell cycle analysis
Cell cycle arrest and distribution were evaluated using the Propidium Iodide Flow Cytometry Kit (ab139418, Abcam) followed by flow cytometry analysis.[45,46] First, HepG2 cells were cultured at a density of 2 × 10^5/well for 24 h in the presence of tested newly synthesized compounds 6c (2.6 μM) (control cells were left untreated and both measurements were done in triplicate). Then, the attached cells were supplemented with trypsin, washed with ice-cold PBS, centrifuged, and fixed using ice -cold 70% ethanol. Next, cells were re -suspended and stored at +4 °C for at least 2 h. After that, cells were incubated with 200 μL 1X Propidium Iodide (PI) + RNase Staining Solution for 30 min at 37 °C in the dark. The DNA content in each cell nucleus was determined by Epics XL -MCL™ flow cytometer (Beckman -Coulter, USA). Finally, cell cycle phase distribution was analyzed using Flowing software 2.5.1 (Turku Centre for Biotechnology, University of Turku, Turku, Finland). […]
University of Turku, Turku, Finland).

HER2 = HER2 (Homo sapiens, UniProt P04626); test: In vitro HER2 kinase inhibitory assay (BPS kit, Kinase-Glo); conditions: read-out: IC50 HER2, 40 min at 30 °C
Chain of HER2 (P04626 23-1255): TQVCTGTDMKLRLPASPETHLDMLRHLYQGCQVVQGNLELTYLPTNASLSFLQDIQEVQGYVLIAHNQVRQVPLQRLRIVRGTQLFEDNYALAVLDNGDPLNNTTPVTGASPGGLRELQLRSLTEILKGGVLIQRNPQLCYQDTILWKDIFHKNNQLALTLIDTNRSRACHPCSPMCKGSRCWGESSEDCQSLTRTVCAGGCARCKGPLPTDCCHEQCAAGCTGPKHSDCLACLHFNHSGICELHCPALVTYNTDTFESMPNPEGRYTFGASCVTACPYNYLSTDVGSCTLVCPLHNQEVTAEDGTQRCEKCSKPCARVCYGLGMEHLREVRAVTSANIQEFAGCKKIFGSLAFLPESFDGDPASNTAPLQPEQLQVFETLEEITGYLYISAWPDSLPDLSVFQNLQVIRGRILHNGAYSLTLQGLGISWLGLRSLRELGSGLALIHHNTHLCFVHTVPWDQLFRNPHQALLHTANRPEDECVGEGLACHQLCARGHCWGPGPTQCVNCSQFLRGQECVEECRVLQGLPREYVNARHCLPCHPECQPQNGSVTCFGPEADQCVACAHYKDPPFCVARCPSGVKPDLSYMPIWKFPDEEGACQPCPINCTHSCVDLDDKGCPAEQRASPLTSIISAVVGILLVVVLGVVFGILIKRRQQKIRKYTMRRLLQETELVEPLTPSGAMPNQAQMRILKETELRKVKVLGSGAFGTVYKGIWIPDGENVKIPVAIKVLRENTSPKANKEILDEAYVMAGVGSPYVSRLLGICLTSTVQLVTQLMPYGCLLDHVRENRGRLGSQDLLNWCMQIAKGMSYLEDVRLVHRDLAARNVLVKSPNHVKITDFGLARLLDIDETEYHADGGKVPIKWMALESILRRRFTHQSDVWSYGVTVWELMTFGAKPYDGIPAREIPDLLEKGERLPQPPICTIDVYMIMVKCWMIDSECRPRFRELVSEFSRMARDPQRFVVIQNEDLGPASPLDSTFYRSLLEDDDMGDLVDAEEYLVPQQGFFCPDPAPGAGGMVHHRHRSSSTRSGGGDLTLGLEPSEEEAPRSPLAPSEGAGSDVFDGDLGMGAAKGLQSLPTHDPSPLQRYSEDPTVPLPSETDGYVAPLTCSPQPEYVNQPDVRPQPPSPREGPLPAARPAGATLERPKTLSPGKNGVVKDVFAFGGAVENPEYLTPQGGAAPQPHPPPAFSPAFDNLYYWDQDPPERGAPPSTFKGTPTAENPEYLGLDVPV
Description: as §21, §22, §23, §24, §25, §26

CDK2 = molecular target: T1, CDK2 (Homo sapiens, UniProt P24941); test: In vitro CDK2 kinase inhibitory assay (BPS kit, Kinase-Glo); format: biochemical; conditions: 40 min at 30 °C
T1 construct: purchased BPS Biosciences, San Diego, CA, USA

VEGFR-2 = molecular target: T2, VEGFR-2 (Homo sapiens, UniProt P35968); test: In vitro VEGFR-2 kinase inhibitory assay (BPS kit, Kinase-Glo); format: biochemical; conditions: 40 min at 30 °C
T2 construct: purchased BPS Biosciences, San Diego, CA, USA
T2 sequence (P35968 20-1356): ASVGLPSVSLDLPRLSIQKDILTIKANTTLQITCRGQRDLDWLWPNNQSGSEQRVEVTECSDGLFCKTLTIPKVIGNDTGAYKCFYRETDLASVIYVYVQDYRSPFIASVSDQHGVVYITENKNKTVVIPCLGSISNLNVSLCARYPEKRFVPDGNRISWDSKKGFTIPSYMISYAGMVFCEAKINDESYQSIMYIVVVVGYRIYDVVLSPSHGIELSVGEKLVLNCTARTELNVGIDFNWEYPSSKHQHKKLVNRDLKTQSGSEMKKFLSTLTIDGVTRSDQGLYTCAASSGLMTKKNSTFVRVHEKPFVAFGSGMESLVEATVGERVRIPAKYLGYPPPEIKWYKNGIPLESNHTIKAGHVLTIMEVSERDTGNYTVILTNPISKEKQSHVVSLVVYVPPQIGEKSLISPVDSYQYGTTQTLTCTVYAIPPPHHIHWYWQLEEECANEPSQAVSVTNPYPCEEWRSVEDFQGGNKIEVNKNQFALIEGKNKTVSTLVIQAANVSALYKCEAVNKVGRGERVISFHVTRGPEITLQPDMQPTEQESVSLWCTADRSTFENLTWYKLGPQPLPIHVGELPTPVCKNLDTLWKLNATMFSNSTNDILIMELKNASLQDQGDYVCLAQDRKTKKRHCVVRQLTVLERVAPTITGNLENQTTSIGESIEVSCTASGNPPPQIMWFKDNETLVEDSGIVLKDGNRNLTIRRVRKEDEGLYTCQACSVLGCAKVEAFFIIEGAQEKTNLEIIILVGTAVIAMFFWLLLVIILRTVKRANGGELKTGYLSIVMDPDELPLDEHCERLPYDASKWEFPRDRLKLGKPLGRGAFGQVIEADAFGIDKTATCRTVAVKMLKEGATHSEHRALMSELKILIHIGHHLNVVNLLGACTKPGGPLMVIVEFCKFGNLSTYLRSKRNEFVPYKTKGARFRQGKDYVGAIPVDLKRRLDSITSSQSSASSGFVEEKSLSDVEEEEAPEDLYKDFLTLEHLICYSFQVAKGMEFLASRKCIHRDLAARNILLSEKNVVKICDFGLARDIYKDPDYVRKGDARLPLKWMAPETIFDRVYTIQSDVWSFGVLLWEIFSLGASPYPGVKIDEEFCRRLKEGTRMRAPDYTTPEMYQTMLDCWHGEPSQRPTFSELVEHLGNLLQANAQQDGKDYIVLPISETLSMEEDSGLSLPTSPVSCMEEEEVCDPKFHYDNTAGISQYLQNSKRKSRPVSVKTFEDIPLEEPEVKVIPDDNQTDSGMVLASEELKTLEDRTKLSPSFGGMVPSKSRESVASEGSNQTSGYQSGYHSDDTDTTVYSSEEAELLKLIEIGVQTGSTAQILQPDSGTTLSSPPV

SMILES	IC50 (HepG2) [µM]	IC50 (MDA-MB-231) [µM]	IC50 (WI38) [µM]	IC50 (MCF-7) [µM]	IC50 (HeLa) [µM]	other results
CN[C@@H]1C[C@H]2O[C@@](C)([C@@H]1OC)n1c3ccccc3c3c4c(c5c6ccccc6n2c5c31)C(=O)NC4 [Staurosporine, reference compound]						Protein Expression (Normalized to β-Actin) Caspase-3 (Caspase-3): 8.43; Protein Expression (Normalized to β-Actin) Bax (Bax): 6.794; Protein Expression (Normalized to β-Actin) Bcl-2 (Bcl-2): 0.351; Protein Expression (Normalized to β-Actin) Caspase-9 (Caspase-9): 4.614
O=C1Nc2ccccc2/C1=N/NC(=O)c1ccc(Nc2ncnc3ccccc23)cc1 [Compound 6a, (Z)-N′-(2-Oxoindolin-3-ylidene)-4-(quinazolin-4-ylamino) benzohydrazide]	7.98 ± 0.6	6.24 ± 0.5	34.1 ± 2.6	4.89 ± 0.3	13.1 ± 0.9	
O=C1Nc2ccc(Cl)cc2/C1=N/NC(=O)c1ccc(Nc2ncnc3ccccc23)cc1 [Compound 6b, (Z)-N′-(5-Chloro-2-oxoindolin-3-ylidene)-4-(quinazolin-4-ylamino)benzohydrazide]	61.4 ± 3.5	56.3 ± 3.2	> 100	70.7 ± 3.4	66.8 ± 3.4	
CCN(CC)CCNC(=O)c1c(C)[nH]c(/C=C2\C(=O)Nc3ccc(F)cc32)c1C [Sunitinib, reference compound]	6.82 ± 0.5	8.41 ± 0.7	43 ± 2.9	5.19 ± 0.4	7.48 ± 0.6	
O=C1Nc2ccc(F)cc2/C1=N/NC(=O)c1ccc(Nc2ncnc3ccccc23)cc1 [Compound 6c, (Z)-N′-(5-Fluoro-2-oxoindolin-3-ylidene)-4-(quinazolin-4-ylamino)benzohydrazide]	2.61 ± 0.1	5.18 ± 0.4	57.3 ± 3.3	3.78 ± 0.2	7.6 ± 0.5	IC50 (EGFR): 0.083 ± 0.005 µM; Protein Expression (Normalized to β-Actin) Caspase-3 (Caspase-3): 10.13; Necrosis (HepG2 cells [1]): 2.94; Apoptosis Induction Analysis Early (HepG2 cells [1]; in % (unit assumed)): 28.64; Apoptosis Induction Analysis Late (HepG2 cells [1]; in % (unit assumed)): 11.21; Apoptosis Induction Analysis Total (HepG2 cells [1]; in % (unit assumed)): 42.79; Cell Cycle Distribution (%) % Sub-G1 (HepG2 cells [2]): 42.79%; Cell Cycle Distribution (%) %G0–G1 (HepG2 cells [2]): 36.47%; Cell Cycle Distribution (%) %G2/M (HepG2 cells [2]): 9.92%; Cell Cycle Distribution (%) %S (HepG2 cells [2]): 53.61%; Protein Expression (Normalized to β-Actin) Bax (Bax): 4.585; Protein Expression (Normalized to β-Actin) Bcl-2 (Bcl-2): 0.185; IC50 (HER2): 0.138 ± 0.07 µM; IC50 (CDK2): 0.183 ± 0.01 µM; IC50 (VEGFR-2): 0.076 ± 0.004 µM; Protein Expression (Normalized to β-Actin) Caspase-9 (Caspase-9): 2.795
COc1cccc2c1C(=O)c1c(O)c3c(c(O)c1C2=O)C[C@@](O)(C(=O)CO)C[C@@H]3O[C@H]1C[C@H](N)[C@H](O)[C@H](C)O1 [Doxorubicin, reference compound]	4.5 ± 0.2					
Cc1ccc2c(c1)/C(=N/NC(=O)c1ccc(Nc3ncnc4ccccc34)cc1)C(=O)N2 [Compound 6d, (Z)-N′-(5-Methyl-2-oxoindolin-3-ylidene)-4-(quinazolin-4-ylamino)benzohydrazide]	87.4 ± 4.5	82.7 ± 4.3	65.8 ± 3.8	> 100	> 100	
